Converted amounts (≈) assume the structure as drawn.
How the values were obtained:
[1] = tested on: Tomato; assay: Post-emergent herbicidal test, tomato; assay type: in vivo; parameters: key: 1: no perceptible injury; 2: intermediate degrees of injury; 3: intermediate degrees of injury; 4: intermediate degrees of injury; 5: the plant was dead; details: 2500 parts per million, after ten days; for Post-emergent Herbicidal, Tomato: Table II; for Post Emergent Herbicidal, Tomato: Table III
Procedure: (§1) Suspensions of the test compounds were prepared by dissolving one gram of compound in 50 milliliters of acetone in which had been dissolved 0.1 gram (10 percent of the weight of compound) of an alkylphenoxyethanol sufactant, as an emulsifying or dispersing agent. The resulting solution was mixed into 160 milliliters of water to give roughly 200 milliliters of a suspension containing the compound in finely divided form. The thus prepared stock suspension contained 0.5 percent by weight of compound. The test concentrations employed in the tests described below were obtained by diluting the stock suspension with water. The test procedures were as follows:
(§2) Experiments were also conducted to determine the phytotoxicity of representative compositions with respect to healthy fresh plants. Solutions of the compounds were prepared as described above to provide a concentration of 2500 parts per million of the test compound. The test plants were sprayed in accordance with the procedure described above for the Mite Foliage Spray Test so as to deliver approximately 100 milliliters of test solutions to the leaves of each plant tested. The sprayed plants and controls were set aside for approximately one hour to allow the solutions to dry and were then placed in the greenhouse. After ten days the plants were visually inspected to determine the extent of foliage injury. A rating of 1 indicates no perceptible injury; 5 indicates the plant was dead and ratings of 2, 3 and 4 indicate intermediate degrees of injury based upon the number and extent to which leaves were injured.

[2] = tested on: Corn; assay: Post-emergent herbicidal test, corn; assay type: in vivo; parameters: key: 1: no perceptible injury; 2: intermediate degrees of injury; 3: intermediate degrees of injury; 4: intermediate degrees of injury; 5: the plant was dead; details: 2500 parts per million, after ten days; for Post-emergent Herbicidal, Corn: Table II; for Post Emergent Herbicidal, Corn: Table III
Procedure: as §1, §2

[3] = tested on: Cotton; assay: Post-emergent herbicidal test, cotton; assay type: in vivo; parameters: key: 1: no perceptible injury; 2: intermediate degrees of injury; 3: intermediate degrees of injury; 4: intermediate degrees of injury; 5: the plant was dead; details: 2500 parts per million, after ten days; for Post-emergent Herbicidal, Cotton: Table II; for Post Emergent Herbicidal, Cotton: Table III
Procedure: as §1, §2

[4] = tested on: Perennial rye grass; assay: Preliminary herbicide seed germination test (pre-emergent), perennial rye grass; assay type: in vivo, Solium perenne; parameters: key: 5: no seedling emerged; 4: few seedlings emerged and/or very severe stunting; 3: moderate reduction in stand and/or moderate stunting.; 2: very slight reduction in stand and/or slight stunting; 1: no injury, seedlings appear no different with respect to stand or growth than untreated controls; details: ten to twelve days after application
Procedure: as §1
(§3) The following seeds were used in this test:
Perennial rye grass--Solium perenne
(§4) Two […] mixtures were prepared as follows:
(§5) Each of the above mixtures was rolled separately in 5 gallon containers for approximately one-half hour on ball mill to insure uniform mixing of seeds and soil. For each compound four 3-inch pots were filled with soil to within 11/2 inches of top of pots. To two of these pots were added 70 cc. of Mixture I. To the remaining 2 pots were added 70 cc. of Mixture II. The seed-soil mixture was tamped firmly, and the pots were removed to the greenhouse and watered lightly. About 2 hours after planting, 25 milliliters of the test formulation were added to one pot containing Mixture I and one pot containing Mixture II. An equal volume of a water solution containing acetone and an emulsifier in the same concentration as the herbicidal mixture but without the candidate herbicide was also added to each of the soil-seed mixtures. These pots are used as check or control units. The test compounds were formulated by diluting the stock suspension with water to obtain the desired concentration of the compound in parts per million of the final formulation. Each compound was tested at the same concentration. […] Ratings were made according to the following designations: […]

[5] = tested on: Mustard; assay: Preliminary herbicide seed germination test (pre-emergent), mustard; assay type: in vivo, Brassica pincea var. foliosa (Florida broadleaf); parameters: key: 5: no seedling emerged; 4: few seedlings emerged and/or very severe stunting; 3: moderate reduction in stand and/or moderate stunting.; 2: very slight reduction in stand and/or slight stunting; 1: no injury, seedlings appear no different with respect to stand or growth than untreated controls; details: ten to twelve days after application
Procedure: as §1, §3
Mustard--Brassica pincea var. foliosa (Florida broadleaf)
as §4, §5

[6] = tested on: Soybean; assay: Post-emergent herbicidal test, soybean; assay type: in vivo; parameters: key: 1: no perceptible injury; 2: intermediate degrees of injury; 3: intermediate degrees of injury; 4: intermediate degrees of injury; 5: the plant was dead; details: 2500 parts per million, after ten days; for Post-emergent Herbicidal, Soybean: Table II; for Post Emergent Herbicidal, Soybean: Table III
Procedure: as §1, §2

[7] = tested on: Crabgrass; assay: Preliminary herbicide seed germination test (pre-emergent), crabgrass; assay type: in vivo, Digitaria sanguinalis; parameters: key: 5: no seedling emerged; 4: few seedlings emerged and/or very severe stunting; 3: moderate reduction in stand and/or moderate stunting.; 2: very slight reduction in stand and/or slight stunting; 1: no injury, seedlings appear no different with respect to stand or growth than untreated controls; details: ten to twelve days after application
Procedure: as §1, §3
Crabgrass--Digitaria sanguinalis
as §4, §5

[8] = tested on: two-spotted mite (adults and nymphal stages); assay: Mite Foliage Spray Test (adults and nymphs); assay type: in vivo, Tetranychus urticae (Koch); parameters: key to Miticidal, Adult: A: Excellent Control; B: Partial Control; No Control; details: for Miticidal, Adult: Table II, mortality count after four days; for LC50: Tetranychus urticae, foliar, Table III, ppm required for a 50 percent kill of mites, read-out: Miticidal LD50, Adult
Procedure: Suspensions of the test compounds were prepared by dissolving one gram of compound in 50 milliliters of acetone in which had been dissolved 0.1 gram (10 percent of the weight of compound) of an alkylphenoxyethanol sufactant, as an emulsifying or dispersing agent. The resulting solution was mixed into 160 milliliters of water to give roughly 200 milliliters of a suspension containing the compound in finely divided form. The thus prepared stock suspension contained 0.5 percent by weight of compound. The test concentrations employed in the tests described below were obtained by diluting the stock suspension with water. The test procedures were as follows: Adults and nymphal stages of the two-spotted mite (Tetranychus urticae (Koch)), reared on Tender-green beam plants at 80±5° F. and 50±5 percent relative humidity, were the tests organisms. Infested leaves from a stock culture were placed of the primary leaves of two bean plants six to eight inches in height, growing in a two-and-a-half inch clay pot. 150-200 Mites, a sufficient number for testing, transferred from the excised leaves to the fresh plants in a period of twenty-four hours. Following the twenty-four hour transfer period, the excised leaves were removed from the infested plants. The test compounds were formulated by diluting the stock suspension with water to provide suspensions containing the desired amount of test compound per million parts of final formulation. The potted plants (one pot per compound) were placed on a revolving turntable and sprayed with 100-110 milliliters of tests compound formulation by use of a DeVilbis spray gun set at 40 psi, air pressure. This application, which lasted 30 seconds, was sufficient to wet the plants to run-off. As a control, 100-110 milliliters of a water solution containing acetone and emulsifier in the same concentrations as the test compound formulation, but containing no test compound, were also sprayed on infested plants. The sprayed plants were held at 80±5° F. and 50±5 percent relative humidity for four days, after which, a mortality count of motile forms was made on the leaves of the test plants. Any individual which was capable of locomotion upon prodding was considered living. In these tests the pesticidal activity of the compounds against mites and mite eggs was rated as follows: Tests were conducted in accordance with the procedures given at pages 17 to 21 supra. The results are expressed in the same manner as used in Table II, except with respect to miticidal activity. For mite adult and mite egg comparison purposes, results are given in parts per million (ppm) required for a 50 percent kill of mites or eggs, respectively.

**Q.** Which results are given for Cc1ccc(C)c(C2=C(OC(=O)C(C)C)CCC2=O)c1 [Compound 12]?
**A.** Post-emergent Herbicidal, Tomato [1]: 3; Post-emergent Herbicidal, Corn [2]: 2; Post-emergent Herbicidal, Cotton [3]: 3; Pre-emergent Herbicidal, Rye ([4]; Table II): 1; Pre-emergent Herbicidal, Mustard ([5]; Table II): 1; Post-emergent Herbicidal, Soybean [6]: 3; Pre-emergent Herbicidal, Crabgrass ([7]; Table II): 1; Miticidal, Adult [8]: B

**Q.** Which “Post Emergent Herbicidal, Tomato” value [1] does the source give for CCCCCCCCCC(=O)OC1=C(c2ccccc2C)C(=O)c2ccccc21 [reference compound] here?
**A.** The value was 1.

**Q.** And the “Post Emergent Herbicidal, Corn” value [2]?
**A.** Its value is 1.

**Q.** What about the “Post Emergent Herbicidal, Cotton” value [3] of the same compound?
**A.** Its value is 1.

**Q.** And the “Pre-emergent Herbicidal, Rye” value ([4]; Table III)?
**A.** Its value is 1.

**Q.** And the “Pre-emergent Herbicidal, Mustard” value ([5]; Table III)?
**A.** Its value is 1.

**Q.** And the “Post Emergent Herbicidal, Soybean” value [6]?
**A.** Its value is 0.

**Q.** And the “Pre-emergent Herbicidal, Crabgrass” value ([7]; Table III)?
**A.** Its value is 1.

**Q.** What about the LC50 [8] of the same compound?
**A.** The LC50 was 500 µg/mL (≈ 1280 µM).

**Q.** CCCCC(CC)C(=O)OC1=C(c2ccccc2C)C(=O)c2ccccc21 (centres unmarked) [reference compound] was tested. Which “Post Emergent Herbicidal, Tomato” value [1] did it give?
**A.** The value was 1.

**Q.** What about the “Post Emergent Herbicidal, Corn” value [2] of the same compound?
**A.** The value was 1.

**Q.** And the “Post Emergent Herbicidal, Cotton” value [3]?
**A.** Its value is 1.

**Q.** And the “Pre-emergent Herbicidal, Rye” value ([4]; Table III)?
**A.** Its value is 1.

**Q.** What about the “Pre-emergent Herbicidal, Mustard” value ([5]; Table III) of the same compound?
**A.** Its value is 1.

**Q.** And the “Post Emergent Herbicidal, Soybean” value [6]?
**A.** Its value is 0.

**Q.** And the “Pre-emergent Herbicidal, Crabgrass” value ([7]; Table III)?
**A.** Its value is 1.

**Q.** What about the LC50 [8] of the same compound?
**A.** Its LC50 is 500 µg/mL (≈ 1380 µM).

**Q.** With CCCCCCCCCC(=O)OC1=C(c2cc(C)ccc2C)C(=O)C2CCCCC12 (centres unmarked) [drawing 19] as the compound, how does the “Post Emergent Herbicidal, Tomato” value [1] read?
**A.** The value was 1.

**Q.** And the “Post Emergent Herbicidal, Corn” value [2]?
**A.** The value was 2.

**Q.** And the “Post Emergent Herbicidal, Cotton” value [3]?
**A.** Its value is 1.

**Q.** What about the “Pre-emergent Herbicidal, Rye” value ([4]; Table III) of the same compound?
**A.** Its value is 1.

**Q.** What about the “Pre-emergent Herbicidal, Mustard” value ([5]; Table III) of the same compound?
**A.** Its value is 1.

**Q.** What about the “Post Emergent Herbicidal, Soybean” value [6] of the same compound?
**A.** Its value is 1.

**Q.** And the “Pre-emergent Herbicidal, Crabgrass” value ([7]; Table III)?
**A.** Its value is 1.

**Q.** What about the LC50 [8] of the same compound?
**A.** The LC50 was 25 µg/mL (≈ 60.9 µM).

**Q.** With Cc1ccc(C)c(C2=C(OC(=O)C(C)C)CC(C)C2=O)c1 (centres unmarked) [Compound 16] as the compound, how does the “Post-emergent Herbicidal, Tomato” value [1] read?
**A.** Its value is 2.

**Q.** What about the “Post-emergent Herbicidal, Corn” value [2] of the same compound?
**A.** The value was 3.

**Q.** What about the “Post-emergent Herbicidal, Cotton” value [3] of the same compound?
**A.** Its value is 3.

**Q.** And the “Pre-emergent Herbicidal, Rye” value ([4]; Table II)?
**A.** Its value is 3.

**Q.** What about the “Pre-emergent Herbicidal, Mustard” value ([5]; Table II) of the same compound?
**A.** Its value is 2.

**Q.** And the “Post-emergent Herbicidal, Soybean” value [6]?
**A.** Its value is 2.

**Q.** What about the “Pre-emergent Herbicidal, Crabgrass” value ([7]; Table II) of the same compound?
**A.** The value was 1.

**Q.** And the “Miticidal, Adult” value [8]?
**A.** Its value is “B”.

**Q.** Which results are given for Cc1ccccc1C1=C(OC(=O)C(C)C)C2CCCCC2C1=O (centres unmarked) [Compound 20]?
**A.** Post-emergent Herbicidal, Tomato [1]: 1; Post-emergent Herbicidal, Corn [2]: 5; Post-emergent Herbicidal, Cotton [3]: 3; Pre-emergent Herbicidal, Rye ([4]; Table II): 4; Pre-emergent Herbicidal, Mustard ([5]; Table II): 3; Post-emergent Herbicidal, Soybean [6]: 3; Pre-emergent Herbicidal, Crabgrass ([7]; Table II): 3; Miticidal, Adult [8]: A

**Q.** For Cc1ccc(C)c(C2=C(OC(=O)C(C)C)C3CCCCC3C2=O)c1 (centres unmarked) [Compound 29], which “Post-emergent Herbicidal, Tomato” value [1] is on record?
**A.** The value was 1.

**Q.** What about the “Post-emergent Herbicidal, Corn” value [2] of the same compound?
**A.** Its value is 2.

**Q.** And the “Post-emergent Herbicidal, Cotton” value [3]?
**A.** The value was 2.

**Q.** And the “Pre-emergent Herbicidal, Rye” value ([4]; Table II)?
**A.** Its value is 1.

**Q.** What about the “Pre-emergent Herbicidal, Mustard” value ([5]; Table II) of the same compound?
**A.** Its value is 1.

**Q.** What about the “Post-emergent Herbicidal, Soybean” value [6] of the same compound?
**A.** Its value is 2.

**Q.** And the “Pre-emergent Herbicidal, Crabgrass” value ([7]; Table II)?
**A.** Its value is 1.

**Q.** What about the “Miticidal, Adult” value [8] of the same compound?
**A.** Its value is “A”.

— US4551547A, “Biocidal 2-aryl-1, 3-cyclopentanedione enol ester compounds” (Union Carbide Corporation, priority 1983, dated 1985)
